Experimental data: patent US20260306500A1, “METHOD OF INHIBITING ADENOSINE TRIPHOSPHATE SECRETION, METHOD OF INHIBITING HEPATIC STELLATE CELL ACTIVATION, METHOD OF DEACTIVATING HEPATIC STELLATE CELL, METHOD OF TREATING HEPATIC FIBROSIS, METHOD OF TREATING NON-ALCOHOLIC STEATOHEPATITIS, AND METHOD OF TREATING PSORIASIS” (Kurume University, priority 2023, published 2026)

Experiments:
[1] = clodronate; cited from earlier work
[2] = test system: MCD diet-induced NASH model; conditions: administration of clodronate, Non Patent Literature 4; cited from earlier work
[3] = test system: VNUT; conditions: known; cited from earlier work
[4] = test system: VNUT; test: Inhibitory effect on VNUT (data not shown)
[5] = test system: mouse auricle; test: Imiquimod-induced psoriasis relapse model (Example 20); assay type: in vivo; conditions: 40 mg/kg oral
Procedure: To the left auricle of each mouse, 62.5 mg of 5% imiquimod cream (Beselna Cream 5%) was applied once daily a total of seven times (Days 1 to 7) in accordance with Example 19 to induce imiquimod-induced psoriasis. Thereafter, the imiquimod treatment was interrupted, and imeglimin (40 mg/kg) was orally administered on alternate days for 2 weeks (Day 8 to 22) (IMG). Mice without administration of imeglimin were designated IMQ. On Day 23, the imiquimod treatment was resumed, and 62.5 mg of 5% imiquimod cream (Beselna Cream 5%) was applied once daily a total of […]. In parallel, imeglimin (40 mg/kg) was orally administered daily to IMG.

[6] = test system: ATP-loaded vesicles of keratinocytes; test: Accumulation of MANT-ATP in granules of keratinocytes (confocal microscopy); assay type: cell-based, human; conditions: 10 μM imeglimin, 19 hours, 0.3 mM MANT-ATP (FIG. 13)
Procedure: Keratinocytes were cultured in the same manner as in Example 8. Keratinocytes were cultured at 4×10^4 cells/ml in a glass-bottom dish (35 mm, manufactured by Matsunami Glass Ind., Ltd.) at 37° C. in 5% CO2 for 2 days. The culture medium was then replaced with a medium supplemented with MANT-ATP (manufactured by Invitrogen) at a final concentration of 0.3 mM, and further incubation was performed for 4.5 hours. Subsequently, imeglimin was added thereto to a final concentration of 10 μM, and further incubation was performed at 37° C. in 5% CO2 for 19 hours. Thereafter, the cells were washed twice with HBSS (manufactured by Gibco) and observed using an inverted confocal laser microscope (FV-1000 OSR, manufactured by Olympus Corporation).

[7] = cited from earlier work
[8] = test system: mouse auricle; test: Imiquimod-induced psoriasis model, oral imeglimin (Example 18); assay type: in vivo
Procedure: Experimental psoriatic symptoms were induced in a mouse auricle by imiquimod. Six-week-old male C57BL/6 mice (N=5) were acclimated for one week. On Days 1 to 7, 62.5 mg of 5% imiquimod cream (Beselna Cream 5%) (3.125 mg in terms of the active ingredient, manufactured by Mochida Pharmaceutical Co. Ltd.) was applied to the right auricle of the mice for 7 consecutive days (IMQ group). Once daily after the imiquimod application, the imeglimin administration group (IMQ+IMG group) received oral administration, at 40 mg/kg, of 500-mg Twymeeg (trademark) tablets (manufactured by Sumitomo Pharma Co. Ltd.) dissolved in physiological saline. The control group received an equal volume of physiological saline. On Day 8, the mice were euthanized by cervical dislocation, and auricle thickness was measured using a dial thickness gauge (manufactured by Adachi Sogyo Co., Ltd.).
Each excised mouse auricle was fixed in 4% paraformaldehyde at 4° C. overnight. After ethanol substitution, the auricle was embedded in paraffin, sectioned using a rotary microtome Leica RM2165 (thickness, […]), and subjected to HE staining or immunohistochemical staining. For the immunohistochemical staining, the sections were deparaffinized, washed in xylene, and rehydrated through graded alcohols. The sections were incubated in DAKO at 95° C. for 30 minutes. The sections were blocked at room temperature for 60 minutes and then incubated at room temperature for 2 hours to allow reaction with a TGM1 anti-rabbit polyclonal antibody (catalog number 12912-3-AP, manufactured by Proteintech). The sample was washed and then allowed to react with a secondary antibody (Alexa 544-conjugated secondary antibody (goat anti-rabbit IgG) (manufactured by Molecular Probes)) at room temperature for 60 minutes. After allowing reaction with DAPI at room temperature for 10 minutes, the sections were mounted with Fluoromount and imaged using a fluorescence microscope (BZ-X710, manufactured by Keyence).

[9] = test system: catecholamine transport of chromaffin granule membranes; test: Catecholamine (dopamine) transport in chromaffin granule membranes; assay type: biochemical, cattle; conditions: role: inhibitor
Procedure: Chromaffin granule membranes were prepared from adrenal glands collected from slaughtered cattle according to Reference A (Nathan Nelson et al., 1988, Chromaffin Granule Proton Pump, Methods in Enzymology, 157, 619-633). Chromaffin granule membranes prepared by sucrose density gradient centrifugation were suspended in 2 ml of SME buffer (20 mM MOPS-tris (pH 7.0), 0.3 M sucrose, 5 mM EDTA, 10 μg/ml leupeptin, and 10 μg/ml pepstatin)+25% glycerol, and the resulting suspension was aliquoted and stored at −80° C. Under these conditions, the ATP transport activity, the V-ATPase activity, and the catecholamine transport activity remain fully active for at least one year.
A catecholamine transport inhibition experiment was carried out in the same manner as the ATP transport experiment except that the experiment used a measurement liquid containing 20 mM MOPS-tris (pH 7.0), 0.1 M sucrose, 0.1 M potassium chloride, 5 mM magnesium acetate, and about 5 μg of chromaffin granule membranes. To 0.5 ml of the measurement liquid, 2 mM ATP was added, and the resulting mixture was incubated at 30° C. for about 5 minutes, followed by addition of 3[H]-dopamine thereto to a final concentration of 10 μM. After further incubation at 30° C. for 15 minutes, 0.2 ml of the reaction liquid was subjected to suction filtration through a Millipore MCE membrane filter with a pore size of 0.45 μm, and the radioactivity on the filter was measured (N=3). The substrate, 3[H]-dopamine, was prepared by mixing 3,4-[RING-2,5,6-^3H]dihydroxyphenylethylamine (dopamine) (30 Ci/mmol) (manufactured by New England Nuclear) with dopamine hydrochloride (manufactured by LKT Laboratories) such that a final concentration of […] was achieved during the use.
Chromaffin granule membrane vesicles were prepared in the same manner as in Example 5, and uptake of radiolabeled ATP into the vesicles was measured. Transport activity of catecholamine (dopamine) and ATP-dependent proton transport by V-ATPase were also measured in the same manner as in Example 5.

[10] = 40 mg/kg oral once daily, Day 8, N=5 (FIG. 33)

## O=P(O)(O)C(Cl)(Cl)P(=O)(O)O [clodronate]
[1]
  absorption: extremely low absorption
  accumulation in bone: accumulate in bone
  serious side effect: jaw osteonecrosis
[2]
  NASH activity score, inflammatory cell infiltration, and hepatic fibrosis: improves
[3]
  VNUT inhibition: known to be a VNUT inhibitor

## C[C@@H]1N=C(N)NC(N(C)C)=N1 [imeglimin]
[4]
  inhibitory effect on VNUT: neither imeglimin nor metformin exhibited a strong inhibitory effect
[5]
  relapse-preventing effect on psoriasis: relapse-preventing effect on psoriasis
[5]; alternate days Day 8 to 22, then daily from Day 23 (FIG. 43)
  psoriatic symptoms after resumed imiquimod treatment: markedly reduced compared to IMQ
[6]
  accumulation of MANT-ATP in granules: absent
[7]; 1 g of imeglimin hydrochloride daily for one week, 10080 min, read-out: blood imeglimin concentration
  concentration: 9 µM
[7]; imeglimin
  transfer into the body: extremely low transfer into the body
[8]; 40 mg/kg oral once daily (FIG. 36)
  inhibitory effect on psoriatic symptoms by TMG1 immunohistochemical images: supported by the immunohistochemical images of TMG1
[8]; [10]
  epidermal desquamation: eliminated epidermal desquamation
  psoriatic symptoms: reduced the psoriatic symptoms
[8]; 40 mg/kg oral once daily, N=5 (FIG. 34)
  imiquimod-induced auricle thickening: suppressed

## C=C(OP(=O)(O)O)C(=O)O [PEP, phosphoenolpyruvic acid]
[9]; 5 mM PEP, 10 μM 3H-dopamine, 2 mM ATP, N=3, control 11.07±0.129
  ATP-dependent dopamine transport activity: 12.41±0.250 nmol/mg protein
[9]; up to 5 mM PEP (data not shown)
  inhibition of catecholamine transport: did not inhibit
